Measurements as given in patent publication US20120190615A1, “METHODS AND COMPOSITIONS FOR INDUCING WEIGHT LOSS” (Sanford-Burnham Medical Research Institute, priority 2011, published 2012).
Several values for one entry are separate records, joined by “and”; a condition that tells them apart may be missing. Equal entries are not always repeated.

Tests used:
BMP signaling = BMP signaling in C3H10T1/2 cells (qPCR of Bmpr1a and BMP-7, Smad 1/5/8 phosphorylation); assay type: cell-based, mouse; details: 100 nM OX 3 days
From the text: Bone morphogenic proteins, which are members of the TGF-β superfamily, control critical steps in development and differentiation and are important regulators of both WAT and BAT adipogenesis. BMP-2 and -4 induce white fat adipogenesis, while BMP-7 enhances brown fat traits. BMP-7 functions through interacting with BMP receptors, which mediate Smad 1/5/8 phosphorylation, to stimulate brown fat adipogenesis.

[1] = system: wild-type C57BL6 mice fed a high fat diet; test: High fat diet six weeks with OX once per day, body weight and NMR body composition (Example 11); assay type: in vivo; details: HFD six weeks
Description: To confirm these findings and investigate the role for OX in energy metabolism and to prevent obesity, wild-type C57BL6 mice were fed a high fat diet (HFD) for six weeks. During this period, half of the mice received OX intraperitoneally once per day, while the other half was injected with saline. Food intake and body weight of both groups were monitored weekly. OX-treated mice ate more, resisted weight gain, were visibly lean, and accumulated less fat. […] Fat and lean mass were determined by subjecting mice to nuclear magnetic resonance (NMR) (Bruker, The Woodlands, Tex., United States) following a four-hour fast. OX therapy had no impact on either the lean mass or total fluid content. FIG. 27 illustrates these findings. Weekly energy intake, cumulative energy consumed, body weight gain over six weeks, and differences in body size between the two groups of mice are depicted.

C3H10T1/2 cells = test: Oxygen consumption / uncoupled respiration of cultured mesenchymal stem cells; assay type: cell-based, mouse
From the text: To determine whether the increased respiration was uncoupled from ATP synthesis, oligomycin-insensitive respiration was first assayed as a measure of uncoupled respiration. Oligomycin inhibits F1 ATP synthetase to suppress only oxidative phosphorylation-associated respiration.

obese wild type B6 mice = test: Reversal of diet-induced obesity, OX twice weekly for 4 wks after 17 weeks HFD (Example 13); assay type: in vivo
Description: To confirm that systemic OX therapy induces weight loss in obese mice, wild type B6 mice were fed a HFD for 17 weeks and treated either with OX (10 mg/kg) or PBS vehicle twice weekly for 4 wks (n=6 mice/group). […] The OX-injected group began losing body weight from week 1. At the end of the 4-week treatment regimen, the OX-injected population appeared considerably leaner than the vehicle-injected controls, and the former had lost about 10 g body weight, as shown in FIG. 29A. […] Enhancement of energy expenditure was not due to any increase in physical activity (FIG. 29C).
To evaluate changes associated with weight loss, OX-treated and untreated mice were compared at autopsy. Untreated mice fed a high fat diet had developed fatty livers, which were visibly paler in color than those from OX-treated mice (FIG. 29E).

C57BL/6 mice = test: Single intraperitoneal OX injection, indirect calorimetry (CLAMS) and iBAT analysis; assay type: in vivo; details: single 30 mg kg−1 i.p. dose
Description: One dose of 30 mg kg^−1 OX was administered intraperitoneally in a single dose to 6-8 week C57BL/6 mice, and metabolic rates and energy expenditure of those mice were then compared to 1 mg kg^−1 isoproterenol- or vehicle (PBS) control-injected mice. Isoproterenol is a beta-sympathomimetic and serves as a reference for Ucp1 expression and brown fat activity. Metabolic rates were measured by indirect calorimetry using the Comprehensive Lab Animal Monitoring System (CLAMS, Columbus Instruments). Food and water were available ad libitum. Mice were acclimatized to individual cages for 24 hours prior to recording, and then underwent 24 hours of monitoring.
Increased energy expenditure was positively correlated with iBAT lipolysis, as evident from depletion of fat droplets. […] As a consequence, core body temperature was elevated by OX injection.

[2] = system: WtB6 mice fed a high fat diet; test: High fat diet six weeks with two weekly OX injections, obesity resistance (Example 12); assay type: in vivo
From the text: To confirm that OX prevents obesity under conditions of caloric excess, a high fat diet (HFD) was fed to WtB6 mice for six weeks. Mice received two weekly OX or PBS injections (n=6/group). Food intake and body weight of both groups were monitored weekly. […] OX-injected animals, however, resisted weight gain, which became apparent during the second wk of therapy (FIG. 28B). At the conclusion of the treatment period, OX-treated mice were visibly lean (FIG. 28C, D) and weighed 7 g±1.2 g less than the control group (FIG. 28B, Table 3). […] Total visceral fat was reduced by more than 60%. Visceral fat in the OX-injected group was noticeably darker in color relative to control tissue (FIG. 28E, F).
Further, the respiratory quotient of OX-injected group was 10% lower than the vehicle injected group, indicating higher fat oxidation capacity (FIG. 28J). […] To determine whether systemic OX injection induces BAT activity, mice with OX (10 mg/kg) or PBS were compared, using relative UCP-1 expression as an indicator for BAT activity 24-hours post-injection.

[3] = cited from earlier work
[4] = end of 4-week treatment, OX 10 mg/kg twice weekly
[5] = HFD six weeks, two weekly injections

orexin-A (EPLPDCCRQKTCSCRLYELLHGAGNHAAGILTL) [OX, human orexin A, cat; No. 24470, Anaspec]
BMP-receptor 1A and BMP-7 mRNA expression (BMP signaling): induced
abdominal obesity of control mice relative to OX-treated mice ([1]; OX i.p. once per day): 3.5 times
body fat accumulated by control mice relative to OX-treated mice ([1]; OX i.p. once per day): twice as much body fat
control mice heavier than OX-treated mice ([1]; OX i.p. once per day): approximately 35%
impact on lean mass or total fluid content ([1]; OX i.p. once per day): no impact
% body fat ([1]; NMR, n=4): 15 ± 1.1%
Fat mass ([1]; NMR, n=4): 3.4 ± 0.4
Fluid content ([1]; NMR, n=4): 7.7 ± 1.5
Lean mass ([1]; NMR, n=4): 18.7 ± 1.1
Lean mass-fat mass ratio ([1]; NMR, n=4): 5.5 ± 0.3
oxygen consumption, higher (C3H10T1/2 cells; basal conditions): 15 fold
oxygen consumption of treated cells in the presence of oligomycin (C3H10T1/2 cells; oligomycin): efficiently consumed oxygen
share of OX-induced respiration uncoupled from ATP synthesis (C3H10T1/2 cells; oligomycin-insensitive respiration): More than half
amount of visceral fat (obese wild type B6 mice; 4 weeks treatment): considerably decreased
food intake (obese wild type B6 mice; between groups): did not differ significantly
lean mass or fluid content (obese wild type B6 mice; between groups): not significantly different
energy expended, more than the control group (obese wild type B6 mice; calorimetric studies): 17%
oxygen consumed, more than the control group (obese wild type B6 mice; calorimetric studies): 13%
body weight lost (obese wild type B6 mice; end of 4-week treatment): about 10 g
% body fat (obese wild type B6 mice; [4]): 27% and 27 ± 1.4%
Fat mass (obese wild type B6 mice; [4]): 7.9 ± 0.6
Lean mass (obese wild type B6 mice; [4]): 20.4 ± 1.3
Lean mass fat mass ratio (obese wild type B6 mice; [4]): 2.58 ± 0.2
Body weight (obese wild type B6 mice; end of 4-week treatment, OX 10 mg/kg twice weekly, in g (unit assumed)): 29.2 ± 0.8
reduction of whole body fat mass (obese wild type B6 mice; end of the study): 55%
triglycerides within the liver (obese wild type B6 mice; high fat diet, at autopsy): 91 ± 7 µmol/g
iBAT mitochondrial content/activity (obese wild type B6 mice; mitoTracker-stained iBAT sections, relative to controls): elevated mitochondrial content/activity
core body temperature (C57BL/6 mice): elevated
food consumption (C57BL/6 mice): increased food consumption
increase in whole-body energy expenditure (C57BL/6 mice): 23-25%
oxygen consumption (C57BL/6 mice): stimulated oxygen consumption
physical activity (C57BL/6 mice): decreased physical activity
prdm16, Pgc1-alpha, C/ebp-alpha, Dio2, Ucp-1 expression in BAT (C57BL/6 mice): induced
extent of iBAT lipolysis (C57BL/6 mice; isoproterenol 1 mg kg−1 reference): comparable to that induced by isoproterenol
% body fat [2, 5]: 15% and 15 ± 1.1%
Fat mass [2, 5]: 3.4 ± 0.4
Fluid content [2, 5]: 7.7 ± 1.5
Lean mass [2, 5]: 18.7 ± 1.1
Lean mass-fat mass ratio [2, 5]: 5.5 ± 0.3
iBAT UCP1 expression ([2]; OX 10 mg/kg, 24-hours post-injection): higher UCP1 levels than controls
body weight less than the control group ([2]; at the conclusion of the treatment period): 7 g
oxygen consumed, more than the control group ([2]; calorimetric measurements): 15%
respiratory quotient, lower than the vehicle injected group ([2]; calorimetric measurements): 10%
reduction of total visceral fat ([2]; end of the study): more than 60%
reduction of whole body fat mass ([2]; end of the study): 50%
physical activity ([2]; infrared monitoring, two weeks): not more physically active
increase in twenty-four hour energy expenditure ([2]; relative to control mice): 19%
cumulative food intake over the 6-week period ([2]; versus vehicle): not significantly different
food intake during the first week ([2]; versus vehicle): ate significantly more
lean mass or fluid content ([2]; versus vehicle): not significantly different
blood-brain barrier permeation ([3]; in contrast with orexin-B): blood-brain barrier permeant
liposolubility ([3]; versus orexin-B): higher liposolubility than orexin-B
stability ([3]; versus orexin-B): much more stable than Orexin-B
